Compared with `CNc1nc(-c2cccc(-c3cnc4ccccc4c3)c2)c2cc(OC)c(OC)cc2n1`, `COc1ccc(-c2cnn3c(-c4cccc(NC(=O)CC(C)C)c4)ccnc23)cc1C=O` is lower in melting point: 218 to 220 °C for the first, 187 to 189 °C for the second.

First: COc1cc(-c2csc(NS(=O)(=O)c3ccccc3)n2)ccc1OCc1ccccc1
Second: COC(=O)CN(C)C(=O)c1c(OCc2ccccc2)ccc2c(C(F)(F)F)c(OC)ccc12
The melting point of the first is higher: 152 to 155 °C for the first, 95 to 98 °C for the second.

First: O=C1Cc2cccc(C(=O)c3ccc(F)cc3)c2N1
Second: CCOC(=O)c1cc(NC(=O)c2ccc(C)cc2)ccc1N
The melting point of the first is higher: 185 to 187 °C for the first, 167 to 171 °C for the second.

First: Clc1cccc2c1CSCCCN2
Second: CCOC(=O)C1=C(N)NC2=C(C(=O)CCC2)C1c1cccc(C#N)c1 (stereo unspecified)
The melting point of the first is lower: 71 to 73 °C for the first, 262 °C for the second.

First: CC(c1c[nH]cn1)c1cccc(C#N)c1O (stereo unspecified)
Second: CSCc1cnc2ccccc2c1O
The melting point of the first is lower: 172 °C for the first, 196 to 197 °C for the second.

First: COc1cc(C(=O)c2ccccc2N)ccn1
Second: CC(C(=O)O)c1ccc2c(c1)Cc1cccnc1S2 (stereo unspecified)
The melting point of the first is lower: 82 to 86 °C for the first, 203 to 204 °C for the second.

First: CCOC(=O)c1cc(CC#N)c(C)s1
Second: COC(=O)c1ncn(C2CCCCO2)c1CC#N (stereo unspecified)
The melting point of the first is lower: 55 to 57 °C for the first, 98 to 99 °C for the second.

Compared with `COc1ccc2c(c1)C(CC#N)=CCC2`, `COc1ccc(N2CCN(CCC3OCCc4ccc(Br)cc43)CC2)cc1` (stereo unspecified) is higher in melting point: 48 to 50 °C for the first, 78 to 79 °C for the second.

First: CN1CCN(C(=O)c2ccc(N)cc2N)CC1
Second: COc1ccc(N2CCN(C(=O)CC3CCc4ccccc43)CC2)cc1 (stereo unspecified)
The melting point of the first is higher: 192 °C for the first, 111 to 112 °C for the second.

First: CCOc1cc(C(C#N)N2C(=O)c3cccc([N+](=O)[O-])c3C2=O)ccc1OC (stereo unspecified)
Second: COC(=O)c1ccc([N+](=O)[O-])cc1-n1c(CCl)nc2ccccc2c1=O
The melting point of the first is lower: 155 to 157 °C for the first, 158 to 159 °C for the second.

First: O=c1ccc(-c2c(-c3ccccc3)nn3ccccc23)nn1C1CN2CCC1CC2 (stereo unspecified)
Second: NC(=O)C(c1ccccc1)(c1ccccc1)C1CCN(C2CCCCC2)C1 (stereo unspecified)
The melting point of the first is higher: 191 to 193 °C for the first, 119 to 121 °C for the second.

Compared with `NC(=O)Cc1c(F)cccc1C(F)(F)F`, `NC(=O)Cc1ccc(-c2ccc(F)cc2F)c(F)c1` is lower in melting point: 172 to 174 °C for the first, 137 to 140 °C for the second.

First: COc1ccc(CNc2nc(N3CCC[C@H]3CO)ncc2C(=O)NCc2ncccn2)cc1Cl
Second: CCN1C(=O)CCCc2cc(Nc3ncc(Cl)c(Nc4ccccc4S(=O)(=O)C(C)C)n3)c(OC)cc21
The melting point of the first is lower: 160 to 163 °C for the first, 195 to 197 °C for the second.

First: CCOC(=O)C(=O)CC(=O)C(Br)C(Br)c1ccccc1OC (stereo unspecified)
Second: CCOC(=O)N(CC(=O)O)n1nnc2ccccc21
The melting point of the first is lower: 113 to 115 °C for the first, 189 to 192 °C for the second.

First: CCN(CC)C(=O)n1cnc(S(=O)(=O)c2cc(F)c(C#N)cc2F)n1
Second: Cc1nsc(N=Nc2ccc(N(CCO)CCO)cc2NC(=O)C(C)C)c1C#N
The melting point of the first is lower: 98 °C for the first, 152 to 154 °C for the second.

Compared with `Nc1c(-c2ccc(Br)cc2)nc2ccc(F)cc2c1C(=O)O`, `COc1ccc(C2=NNC(=O)CC2c2ccc(OC)c(F)c2)cc1` (stereo unspecified) is lower in melting point: 231 to 233 °C for the first, 171 to 173 °C for the second.

First: COC(=O)/C=C/C1=C(C)C2(CCC1(C)C)SCCS2
Second: CCN1CCN(c2ccc(C(=O)OC)cc2)CC1
The melting point of the first is lower: 79.5 to 88.1 °C for the first, 102 to 104 °C for the second.

First: CCCCNC(=O)c1ccc(Cl)c(-n2nc(CCCC)n(Cc3ccc(-c4ccccc4S(=O)(=O)NC(=O)OC(C)(C)C)cc3F)c2=O)c1
Second: CC(C)(C)c1ccc(Cn2c(-c3ccc4c(c3)OCO4)nc3ccccc32)cc1
The melting point of the first is lower: 98 to 100 °C for the first, 142 to 144 °C for the second.

First: COc1cc(C)c(C(=O)c2c(OC)ncc(Br)c2Cl)c(OC)c1OC
Second: COc1cc2c(cc1OC)CC(C(=O)N1CCN(C(=O)c3cc(OC)c(OC)c(OC)c3)CC1)=C2
The melting point of the first is lower: 84 to 87 °C for the first, 183 to 185 °C for the second.

Compared with `COc1cccc(N(C)C(=O)Oc2ccc(Cl)c(C(C)(C)C)c2)n1`, `CN(C)Cc1cc(C(=O)c2ccc3ccccc3c2)cc(C(C)(C)C)c1O` is higher in melting point: 54 to 56 °C for the first, 162 to 164 °C for the second.

First: OCC1Cc2c(c(Br)cc3c(-c4ccccc4)noc23)O1 (stereo unspecified)
Second: CC1CC(=O)N(c2cc(Cc3n[nH]c(=O)c4ccccc34)ccc2F)C1=O (stereo unspecified)
The melting point of the first is lower: 164 to 166 °C for the first, 171 to 172 °C for the second.

First: O=C(c1ccccc1)N1CC2CC=Cc3cccc1c32 (stereo unspecified)
Second: O=C(CC(=S)S)c1ccc(Oc2ccccc2)cc1
The melting point of the first is higher: 89 to 91 °C for the first, 78 °C for the second.

First: O=C(N[C@@H]1C2CCN(CC2)[C@H]1Cc1cccnc1)c1cc2ccccc2o1
Second: Cc1c(NC(=O)c2ccc(-c3ccc(Cl)cc3)nc2)ccc2cc(CN3CCCC3)cnc12
The melting point of the first is lower: 134 to 139 °C for the first, 234 to 236 °C for the second.

Compared with `COc1cc(COc2nn(C)cc2CC(=O)O)ccc1OCc1nc(-c2ccccc2)oc1C`, `COC(=O)COC1c2ccccc2COc2ccc(OCc3ccc4cc(Cl)ccc4n3)cc21` (stereo unspecified) is lower in melting point: 153 to 154 °C for the first, 144 to 147 °C for the second.

First: N#Cc1nn(-c2c(Cl)cc(C(F)(F)F)cc2Cl)cc1OC(F)(F)C(F)Cl (racemic)
Second: C=C(c1cn(-c2c(Cl)cc(C(F)(F)F)cc2Cl)nc1C#N)C(F)(F)F
The melting point of the first is lower: 99 to 101 °C for the first, 103 to 104 °C for the second.

First: CC1(C(F)(F)F)CC(=O)C(C(=O)c2ccc(C(F)(F)F)cc2[N+](=O)[O-])C(=O)N1 (stereo unspecified)
Second: Cc1ncncc1NC(=O)c1ccc(-n2nc(C(F)(F)F)cc2C2CC2)c(F)c1
The melting point of the first is higher: 164 to 166 °C for the first, 150 to 152 °C for the second.

First: COc1nc(C)nc(NC(=O)NS(=O)(=O)c2ccccc2C(=O)OCCCl)n1
Second: CC(C)(C)OC(=O)CC(NC(=O)C1CCCN2C(=O)CCC(NS(C)(=O)=O)C(=O)N12)C(=O)COC(=O)c1ccccc1Oc1ccccc1 (stereo unspecified)
The melting point of the first is higher: 167 to 170 °C for the first, 85 to 100 °C for the second.

First: COC(=O)Nc1cc(C(C)(C)C)on1
Second: COC(=O)Nc1ccc(OCc2nc3ccc(OC)cc3s2)cc1C
The melting point of the first is lower: 55.5 to 58.5 °C for the first, 123 to 125 °C for the second.

First: COC(=O)COc1cccc2c(CCSC(c3ccc(O)cc3)c3ccc(O)cc3)c(C)oc12
Second: CC1=NC(NC(=O)Nc2cccc(C)c2)C(=O)N(CC(=O)N(CC(C)C)CC(C)C)c2c(C)cccc21 (stereo unspecified)
The melting point of the first is lower: 178 to 180 °C for the first, 227 to 228 °C for the second.

First: CC(=O)Nc1ccc2c(c1)CC(CC(=O)O)C2=O (single isomer, unassigned; (-))
Second: CC(=O)Nc1ccc(N=C=S)cc1O
The melting point of the first is higher: 190 to 192 °C for the first, 68 to 70 °C for the second.

First: CNc1nc(CO)c(-c2ccncc2)s1
Second: CC(=O)n1cc(O)c2cc(Cl)ccc21
The melting point of the first is higher: 216 to 218 °C for the first, 186 to 188 °C for the second.

Compared with `Cc1sc2cc(C(=O)NCC3(SCc4ccccc4)CCNCC3)[nH]c2c1N(C)S(=O)(=O)c1cccs1`, `CC(C)(C)OC(=O)C1CCCNN1C(=O)C(CCC(=O)O)N1C(=O)c2ccccc2C1=O` (stereo unspecified) is lower in melting point: 222 °C for the first, 132 to 134 °C for the second.

Compared with `CC(C)(O)COC1CCNCC1`, `CNC(=O)NC(=O)C(CC1CCCC1)c1ccc(S(C)(=O)=O)c(Br)c1` (stereo unspecified) is higher in melting point: 80 to 82 °C for the first, 259 to 260 °C for the second.

First: Cn1c(=O)c2c(ncn2CCCC#N)n(C)c1=O
Second: COc1cc(C=CN(C)C)c([N+](=O)[O-])cc1OC
The melting point of the first is higher: 146 to 150 °C for the first, 125 to 126 °C for the second.

First: CCOC(=O)C(=CNc1nnn[nH]1)C(=O)c1cc(F)c(Cl)nc1Cl
Second: O=S1c2ccccc2Oc2ccc(-c3nnn[nH]3)cc21 (stereo unspecified)
The melting point of the first is lower: 150 to 152 °C for the first, 267 to 268 °C for the second.

For `CCCCSC(=S)N1C(CO)Cc2c([nH]c3ccccc23)C1C` (stereo unspecified), the melting point was 110 to 113 °C.

— a melting point compilation (Tetko et al.; mined from patent text by program, amines drawn as free bases though some values may be those of a salt)
